According to ChEMBL document CHEMBL4330132, “5-Keto-3-cyano-2,4-diaminothiophenes as selective maternal embryonic leucine zipper kinase inhibitors” (Bioorg Med Chem Lett, 2019):

Key:
[1] = tested on: Tyrosine-protein kinase ABL1 (Homo sapiens), P00519 [Q252H]; assay: Binding affinity to human phosphorylated ABL1 Q252H mutant expressed in mammalian expression system assessed as residual binding level at 1 uM by Kinomescan method relative to control
[2] = target: BMP-2-inducible protein kinase (Homo sapiens) (UniProt Q9NSY1); assay: Binding affinity to wild-type human partial length BIKE (S34 to N329 residues) expressed in bacterial expression system assessed as residual binding level at 1 uM by Kinomescan method relative to control
[3] = target: Serine/threonine-protein kinase 26 (Homo sapiens) (UniProt Q9P289); assay: Binding affinity to wild-type human full length MST4 (M1 to P416 residues) expressed in mammalian expression system assessed as residual binding level at 1 uM by Kinomescan method relative to control
[4] = target: TGF-beta receptor type-1 (Homo sapiens) (UniProt P36897); assay: Binding affinity to wild-type human partial length TGFBR1 (D179 to M503 residues) expressed in bacterial expression system assessed as residual binding level at 1 uM by Kinomescan method relative to control
[5] = target: Receptor tyrosine-protein kinase erbB-3 (Homo sapiens) (UniProt P21860); assay: Binding affinity to wild-type human partial length ERBB3 (G684 to A987 residues) expressed in mammalian expression system assessed as residual binding level at 1 uM by Kinomescan method relative to control
[6] = target: Ribosomal protein S6 kinase alpha-6 (Homo sapiens) (UniProt Q9UK32); assay: Binding affinity to wild-type human partial length N-terminal RSK4 kinase domain 1 (M1 to E397 residues) expressed in mammalian expression system assessed as residual binding level at 1 uM by Kinomescan method relative to control
[7] = target: Cyclin-dependent kinase-like 3 (Homo sapiens) (UniProt Q8IVW4); assay: Binding affinity to wild-type human partial length CDKL3 (M1 to D327 residues) expressed in bacterial expression system assessed as residual binding level at 1 uM by Kinomescan method relative to control
[8] = target: BDNF/NT-3 growth factors receptor (Homo sapiens) (UniProt Q16620); assay: Binding affinity to wild-type human partial length TRKB (Q547 to G838 residues) expressed in mammalian expression system assessed as residual binding level at 1 uM by Kinomescan method relative to control
[9] = target: Vascular endothelial growth factor receptor 3 (Homo sapiens) (UniProt P35916); assay: Binding affinity to wild-type human partial length FLT4 (E821 to E1196 residues) expressed in bacterial expression system assessed as residual binding level at 1 uM by Kinomescan method relative to control
[10] = target: Fibroblast growth factor receptor 1 (Homo sapiens) (UniProt P11362); assay: Binding affinity to wild-type human partial length FGFR1 (P357 to V669 residues) expressed in bacterial expression system assessed as residual binding level at 1 uM by Kinomescan method relative to control
[11] = target: Serine/threonine-protein kinase D2 (Homo sapiens) (UniProt Q9BZL6); assay: Binding affinity to wild-type human partial length PRKD2 (A519 to E838 residues) expressed in bacterial expression system assessed as residual binding level at 1 uM by Kinomescan method relative to control
[12] = target: Ribosomal protein S6 kinase alpha-2 (Homo sapiens) (UniProt Q15349); assay: Binding affinity to wild-type human partial length N-terminal RSK3 kinase domain 1 (M1 to Q385 residues) expressed in bacterial expression system assessed as residual binding level at 1 uM by Kinomescan method relative to control
[13] = target: Phosphorylase b kinase gamma catalytic chain, skeletal muscle/heart isoform (Homo sapiens) (UniProt Q16816); assay: Binding affinity to wild-type human full length PHKG1 (M1 to Y387 residues) expressed in bacterial expression system assessed as residual binding level at 1 uM by Kinomescan method relative to control
[14] = target: Serine/threonine-protein kinase pim-1 (Homo sapiens) (UniProt P11309); assay: Binding affinity to wild-type human partial length PIM1 (A15 to K313 residues) expressed in bacterial expression system assessed as residual binding level at 1 uM by Kinomescan method relative to control
[15] = target: Phosphatidylinositol 4,5-bisphosphate 3-kinase catalytic subunit gamma isoform (Homo sapiens) (UniProt P48736); assay: Binding affinity to wild-type human partial length PIK3CG (S144 to A1102 residues) expressed in mammalian expression system assessed as residual binding level at 1 uM by Kinomescan method relative to control
[16] = target: Serine/threonine-protein kinase PknB (Mycobacterium tuberculosis) (UniProt P9WI81); assay: Binding affinity to wild-type Mycobacterium tuberculosis H37Rv partial length PKNB (M1 to G279 residues) expressed in mammalian expression system assessed as residual binding level at 1 uM by Kinomescan method relative to control
[17] = target: Cyclin-dependent kinase 3 (Homo sapiens) (UniProt Q00526); assay: Binding affinity to wild-type human full length CDK3 (M1 to H305 residues) expressed in bacterial expression system assessed as residual binding level at 1 uM by Kinomescan method relative to control
[18] = target: Serine/threonine-protein kinase Nek6 (Homo sapiens) (UniProt Q9HC98); assay: Binding affinity to wild-type human full length NEK6 (M8 to T313 residues) expressed in bacterial expression system assessed as residual binding level at 1 uM by Kinomescan method relative to control
[19] = target: Myotonin-protein kinase (Homo sapiens) (UniProt Q09013); assay: Binding affinity to wild-type human partial length DMPK (V47 to V415 residues) expressed in bacterial expression system assessed as residual binding level at 1 uM by Kinomescan method relative to control
[20] = target: Calcium/calmodulin-dependent protein kinase type IV (Homo sapiens) (UniProt Q16566); assay: Binding affinity to wild-type human partial length CAMK4 (A22 to A322 residues) expressed in bacterial expression system assessed as residual binding level at 1 uM by Kinomescan method relative to control
[21] = target: Mitogen-activated protein kinase kinase kinase 20 (Homo sapiens) (UniProt Q9NYL2); assay: Binding affinity to wild-type human partial length ZAK (M1 to L331 residues) expressed in bacterial expression system assessed as residual binding level at 1 uM by Kinomescan method relative to control
[22] = target: Serine/threonine-protein kinase 32B (Homo sapiens) (UniProt Q9NY57); assay: Binding affinity to wild-type human full length YANK2 (M1 to S414 residues) expressed in bacterial expression system assessed as residual binding level at 1 uM by Kinomescan method relative to control
[23] = target: Dual specificity mitogen-activated protein kinase kinase 3 (Homo sapiens) (UniProt P46734); assay: Binding affinity to wild-type human full length MEK3 (M1 to S318 residues) expressed in mammalian expression system assessed as residual binding level at 1 uM by Kinomescan method relative to control
[24] = target: Tyrosine-protein kinase Mer (Homo sapiens) (UniProt Q12866); assay: Binding affinity to wild-type human partial length MERTK (R557 to L884 residues) expressed in bacterial expression system assessed as residual binding level at 1 uM by Kinomescan method relative to control

## CC(C)Nc1sc(C(=O)c2ccc(Cl)s2)c(N)c1C#N
[1]
  Activity: 100%
[2]
  Activity: 56%
[3]
  Activity: 100%
[4]
  Activity: 100%
[5]
  Activity: 75%
[6]
  Activity: 81%
[7]
  Activity: 47%
[8]
  Activity: 70%
[9]
  Activity: 50%
[10]
  Activity: 70%
[11]
  Activity: 100%
[12]
  Activity: 54%
[13]
  Activity: 89%
[14]
  Activity: 92%
[15]
  Activity: 100%
[16]
  Activity: 95%
[17]
  Activity: 89%
[18]
  Activity: 100%
[19]
  Activity: 100%
[20]
  Activity: 100%
[21]
  Activity: 95%
[22]
  Activity: 100%
[23]
  Activity: 100%
[24]
  Activity: 100%
